Measured values published in paper PMC7998926 (Microorganisms, 2021).
pIC50: −log10 of the molar value. Where “and” joins values, the source holds several entries; their conditions need not be identical. Equal entries are not always repeated. Entries after “also recorded” stand apart in the source; their conditions may differ. Where two headings read alike, the source gives them in different places.

What was measured:
[1] = tested on: EBOV/Mak; conditions: cited from earlier work; for pIC50: read-out: IC50 (Huh7)
[2] = tested on: EBOV/Mak-C05; conditions: rhesus monkey, in vivo; cited from earlier work
[3] = tested on: EBOV; design: species or system mice; conditions: mouse, in vivo
[4] = tested on: EBOV; design: species or system Ebola virus
[5] = mouse, in vivo; cited from earlier work
[6] = in vivo; conditions: mouse, po, 10 mg/kg
[7] = tested on: EBOV; conditions: mouse, in vivo, cited from earlier work
[8] = mouse, in vivo
[9] = in vivo; conditions: female, C57BL/6, mouse, po
[10] = C57BL/6, mouse, in vivo, po; for Cmax obtained relative to prediction, fold higher: female
[11] = human, in vivo, po, cited from earlier work
[12] = tested on: EBOV; conditions: read-out: IC50 (HepG2); cited from earlier work
[13] = tested on: EBOV; experiment: microbe, parasite or virus in culture; format: cell-based, Ebola virus; conditions: Zaire ebolavirus, read-out: IC50 (average) (μM)
[14] = tested on: VSV-EBOV-GPΔ-Luc; format: cell-based
[15] = rat, in vivo; cited from earlier work
[16] = tested on: EBOV/Mak; format: cell-based, Ebola virus
[17] = tested on: MARV; conditions: mouse, in vivo, ip, 12 mg/kg; cited from earlier work

## CN[C@H]1CC[C@@H](c2ccc(Cl)c(Cl)c2)c2ccccc21 [Sertraline]
[1]
  Hill coefficient: 1.628
[2]
  protection: not effective; also recorded: did not protect macaques
[3]
  predicted survival: ~ 35%
[4]
  mi (hill coefficient of drug i applied in combination): 2.736 and 1.996
[5]
  Oral LD50: 336 mg/kg
[6]
  Cmax: 430 nM
[7]; ip, 10 mg/kg
  Survival (%): 70%
[8]
  tolerability: well tolerated
[9]; 30 mg/kg
  MRT: 11 h
  half-life: 1 h
[9]; 60 mg/kg
  MRT: 5 h
  half-life: 1 h
[10]
  Cmax: ~1200 nM
  Cmax obtained relative to prediction, fold higher: ~ 1.2 fold
[11]; 200 mg
  Cmax: 540 nM

## O=C1CCc2ccc(OCCCCN3CCN(c4cccc(Cl)c4Cl)CC3)cc2N1 [Aripiprazole]
[7]; ip, 20 mg/kg
  Survival (%): 10 ^1%
  somnolence in treated mice: extremely somnolent
[11]; 30 mg
  Cmax: 1010 nM

## CC(=O)c1ccc2c(c1)N(CCCN1CCC(CCO)CC1)c1ccccc1S2 [Piperacetazine]
[1]
  pIC50: 5.12
[12]
  pIC50: 5.48
[13]
  IC50: 5.44 µM

## CCN(CC)CCOc1ccc(C(=C(Cl)c2ccccc2)c2ccccc2)cc1 [Clomiphene]
[7]; ip, 12 mg/kg
  protection: 60% and 40%
[7]; po, 21 mg/kg
  protection: no mice were protected
[11]; 50 mg
  Cmax: 50 nM

## Cc1cccc(/C=N/Nc2cc(N3CCOCC3)nc(OCCc3ccccn3)n2)c1 [Apilimod]
[1]
  pIC50: 6.77
[13]
  IC50: 0.17 µM
[11]; 70 mg
  Cmax: 260 nM

## CN(C)CCOc1ccc(/C(=C(/CCCl)c2ccccc2)c2ccccc2)cc1 [Toremifene]
[1]
  Hill coefficient: 3.057
  pIC50: 5.44
[12]
  pIC50: 7.52
[3]
  approximated protection of infected mice: ~ 50%
  estimated survival: ~ 50%
  predicted survival: ~ 7%
[14]
  inhibitory activity over time (stability in V8): began to lose activity after ~1 week
[4]
  mi (hill coefficient of drug i applied in combination): 1.628
[6]
  Cmax: 160 nM
[15]
  Oral LD50: 3000 mg/kg
[7]; ip, 60 mg/kg
  Survival (%): 50%
[13]
  IC50: 1.8 µM
[8]
  tolerability: well tolerated
[9]; 100 mg/kg
  Cmax: 498 ng/mL
  MRT: 6 h
  half-life: 0.5 h
[9]; 200 mg/kg
  Cmax: 1300 ng/mL
  MRT: 16 h
  half-life: 0.2 h
[10]
  Cmax: ~4400 nM
[11]; 60 mg
  Cmax: 1970 nM

## CC(C)COCC(CN(Cc1ccccc1)c1ccccc1)N1CCCC1 (stereo not drawn) [Bepridil]
[1]
  Hill coefficient: 4.859
  pIC50: 5.23
[12]
  pIC50: 5.49
[14]
  inhibitory activity over time (stability in V8): maintained inhibitory activity over 15 days
[16]
  possible loss of potency: < 2 fold
[4]
  mi (hill coefficient of drug i applied in combination): 4.043
[5]
  Oral LD50: 2069 mg/kg
[7]; ip, 12 mg/kg
  Survival (%): 100% and 100 ^3%
  survival: 90-100%
[13]
  IC50: ~4 µM
[8]
  tolerability: well tolerated
[17]
  Survival (%): 90 ^4%
  mice protected: 80%
[9]; 150 mg/kg
  MRT: 6 h
  half-life: 0.5 h
[9]; 500 mg/kg
  MRT: 9 h
  half-life: 0.5 h
[10]
  Cmax: ~3000 nM
  Cmax obtained relative to prediction, fold higher: ~ 1.8 fold
[11]; 400 mg
  Cmax: 2430 nM

## CC[C@H]1OC(=O)[C@H](C)[C@@H](O[C@H]2C[C@@](C)(OC)[C@@H](O)[C@H](C)O2)[C@H](C)[C@@H](O[C@@H]2O[C@H](C)C[C@H](N(C)C)[C@H]2O)[C@](C)(O)C[C@@H](C)CN(C)[C@H](C)[C@@H](O)[C@]1(C)O [Azithromycin]
[1]
  pIC50: 4.97
[7]; ip, 100 mg/kg
  Survival (%): 10, 30, 60 ^2%
[13]
  IC50: 10.8 µM
[11]; 500 mg
  Cmax: 640 nM
